{"source": "patent US20110008258A1", "about": "“METHODS RELATING TO BREATHING DISORDERS” (SAMSARA MEDICIN AB, priority 2007, published 2011)", "key": {"EP3R^+/+ mice": {"test_system": "EP3R^+/+ mice", "assay": "Flow plethysmography after icv PGE2, EP3R+/+ mice", "type": "in vivo", "protocol": "(§1) A Plexiglas chamber (35 ml) was connected to a highly sensitive direct airflow sensor (0-200 ml/min; TRN3100, Kent Scientific Corporation, Litchfield, Conn., USA). The flow signal was amplified by a four-channel amplifier (P/N 770 S/N 5; SENSElab, Somedic Sales, Hörby, Sweden), converted to digital signal, and recorded at 100 Hz by an online computer using DasyLab software (Datalog GmbH & Co. KG, Mönchengladbach, Germany). Respiratory frequency (fR, breaths/min), tidal volume (VT, μl/breath), and minute ventilation (VE, μl/min) were calculated. Chamber temperature was maintained at 30.1±0.1° C. in accordance with the documented thermoneutral range for neonatal mice by immersing the chamber in a thermostat-controlled water bath (49). As described previously, the chamber was calibrated by repeatedly injecting standardized volumes of air (5-200 μl) with preset precision syringes (Hamilton Bonaduz AG, Switzerland) (6). 95% of gas exchange occurred within 35 s of administration, which was verified by CO2 content analyses (Metek CD-3A and S-3A, PA, USA).\n(§2) Respiration was examined using flow plethysmography in 9 d-old C57BL/6 mice (n=38) with variable expression of EP3R. After the administration of sevoflurane anesthesia for approximately 60 s, PGE2 (4 nmol in 2-4 μl aCSF) or vehicle was slowly injected into the lateral ventricle using a thin pulled glass pipette attached to polyeethylene tubing. The mouse was then placed immediately into the plethysmograph chamber. After a 10 min recovery period in normoxia, the mouse was exposed to hyperoxic and anoxic challenge as described above. Animal skin temperature was recorded at baseline and at each subsequent minute using a thermistor temperature probe.\n(§3) Periods of calm respiration without movement artefact were selected for analysis. Mean fR, VT, and VE values during normoxia and hyperoxia as well as the anoxic response (i.e., hyperpnea, primary apnea, gasping, secondary apnea, and autoresuscitation) were analyzed as described previously (6, the disclosure of which is expressly incorporated herein by reference). Survival was recorded for all animals. Apnea was defined as cessation of breathing for three respiratory cycles. Regularity of breathing was quantified using the coefficient of variation (C.V.) (i.e., SD divided by mean of breath-by-breath interval during 60 periods)."}, "EP3R^−/− mice": {"test_system": "EP3R^−/− mice", "assay": "Flow plethysmography after icv PGE2, EP3R−/− mice", "type": "in vivo", "protocol": "as §1, §2, §3"}, "[1]": {"test_system": "brainstem spinal-cord preparations from EP3R^+/+ pups", "assay": "En bloc brainstem-spinal cord preparation, respiratory activity, EP3R+/+", "set-up": "species or system mice", "conditions": "PGE2 20 μg/l, 2-3 d old EP3R+/+ pups, n=5, reversible", "protocol": "(§4) Brainstem-spinal cord preparations were rapidly isolated from 2 d-old C57BL/6 mice with EP3R^+/+ and EP3R^−/− genotypes as described previously (n=11) (50, 51, both of which are expressly incorporated herein by reference). Respiratory-related activity corresponding to the inspiratory rhythm was monitored at the C4 ventral root through a glass suction electrode, recorded (5 kHz), and analyzed offline. Control recordings were performed for at least 20 min before perfusion with aCSF containing PGE2 followed by an aCSF washout period.\n(§5) The brainstem was rostrally decerebrated between the cranial nerve VI roots and the lower border of the trapezoid body so that the pons was removed. The preparation was continuously perfused in a 1.5 ml chamber with artificial cerebrospinal fluid (aCSF): 130 mM NaCl, 3.3 mM KCl, 0.8 mM KH2PO4, 0.8 mM CaCl2, 1.0 mM MgCl2, 26 mM NaHCO3, and 30 mM D-glucose at 28° C. (flow rate, 3-4 ml/min). The solution was continuously equilibrated with 95% O2 and 5% CO2 to pH 7.4 (50, 51)."}, "[2]": {"test_system": "brainstem spinal-cord preparations from EP3R^−/− mice", "assay": "En bloc brainstem-spinal cord preparation, respiratory activity, EP3R−/−", "conditions": "PGE2 20 μg/l, n=6", "protocol": "as §4, §5"}, "[3]": {"protocol": "PGE2 and metabolites thereof may persist and may be measured even after more than 72 hours. Half time for PGE2 degradation various considerably pending on the cellular environment. Half-life of PGE2 can vary from a few minutes to several hours. When evaluating PGE2 produced in the body and secreted in urine or other body fluids it is important to also measure its metabolites."}, "[4]": {"test_system": "IL-1β-induced respiratory depression", "conditions": "cited from earlier work"}, "[5]": {"conditions": "9 d-old EP3R+/+ mice, PGE2 icv, hyperoxia (100% O2)"}, "[6]": {"conditions": "9 d-old EP3R+/+ mice, PGE2 icv, normoxia"}, "[7]": {"conditions": "9 d-old EP3R−/− mice, PGE2 icv, hyperoxia (100% O2)"}, "[8]": {"conditions": "9 d-old EP3R−/− mice, PGE2 icv, normoxia"}}, "data": [{"smiles": "CCCCC[C@H](O)/C=C/[C@H]1[C@H](O)CC(=O)[C@@H]1C/C=C\\CCCC(=O)O", "note": "[PGE2, Prostaglandin E2]", "values": [{"measurement": "fR, normoxia", "setting": "EP3R^+/+ mice; 9 d-old EP3R+/+ mice, PGE2 4 nmol icv, normoxia", "result": "247 ± 13", "unit": "breaths/min"}, {"measurement": "Hyperpnea fR", "setting": "EP3R^+/+ mice; 9 d-old EP3R+/+ mice, PGE2 icv, anoxia (100% N2)", "result": "267 ± 11", "unit": "breaths/min"}, {"measurement": "VE, hyperoxia", "setting": "EP3R^+/+ mice; [5]", "result": "745 ± 102", "unit": "µL/min/g"}, {"measurement": "VT, hyperoxia", "setting": "EP3R^+/+ mice; [5]", "result": "4.4 ± 1.1", "unit": "μl/br/g"}, {"measurement": "fR, hyperoxia", "setting": "EP3R^+/+ mice; [5]", "result": "190 ± 16", "unit": "breaths/min"}, {"measurement": "VE, normoxia", "setting": "EP3R^+/+ mice; [6]", "result": "901 ± 154", "unit": "µL/min/g"}, {"measurement": "VT, normoxia", "setting": "EP3R^+/+ mice; [6]", "result": "3.7 ± 0.4", "unit": "μl/br/g"}, {"measurement": "gasping response and anoxic survival", "setting": "EP3R^+/+ mice; EP3R+/+ mice, PGE2 icv, compared to vehicle", "result": "did not alter the gasping response or anoxic survival"}, {"measurement": "apnea frequency and breathing pattern", "setting": "EP3R^+/+ mice; EP3R+/+ mice, PGE2 icv, normoxia and hyperoxia, vs vehicle", "result": "induced a significantly greater apnea frequency and irregular breathing pattern"}, {"measurement": "fR, normoxia", "setting": "EP3R^−/− mice; 9 d-old EP3R−/− mice, PGE2 4 nmol icv, normoxia", "result": "256 ± 10", "unit": "breaths/min"}, {"measurement": "Hyperpnea fR", "setting": "EP3R^−/− mice; 9 d-old EP3R−/− mice, PGE2 icv, anoxia (100% N2)", "result": "290 ± 9", "unit": "breaths/min"}, {"measurement": "VE, hyperoxia", "setting": "EP3R^−/− mice; [7]", "result": "1509 ± 299", "unit": "µL/min/g"}, {"measurement": "VT, hyperoxia", "setting": "EP3R^−/− mice; [7]", "result": "6.7 ± 1.3", "unit": "μl/br/g"}, {"measurement": "fR, hyperoxia", "setting": "EP3R^−/− mice; [7]", "result": "229 ± 9", "unit": "breaths/min"}, {"measurement": "VE, normoxia", "setting": "EP3R^−/− mice; [8]", "result": "1350 ± 129", "unit": "µL/min/g"}, {"measurement": "VT, normoxia", "setting": "EP3R^−/− mice; [8]", "result": "5.2 ± 0.5", "unit": "μl/br/g"}, {"measurement": "gasping response and anoxic survival", "setting": "EP3R^−/− mice; EP3R−/− mice, PGE2 icv, compared to vehicle", "result": "did not alter the gasping response or anoxic survival"}, {"measurement": "induction of apneas", "setting": "EP3R^−/− mice; EP3R−/− mice, PGE2 icv, normoxia and hyperoxia, vs vehicle", "result": "not observed"}, {"measurement": "respiratory rhythm generation, relative to control frequency (fR)", "setting": "[1]", "result": "64±5 % of control frequency"}, {"measurement": "effect on respiratory activity", "setting": "[2]", "result": "did not affect respiratory activity"}, {"measurement": "half-life of PGE2", "setting": "[3]", "result": "12 to 18", "unit": "h"}]}, {"smiles": "COc1ccc2c(c1)c(CC(=O)O)c(C)n2C(=O)c1ccc(Cl)cc1", "note": "[indomethacin]", "values": [{"measurement": "effect on respiratory depression induced by IL-1β", "setting": "[4]", "result": "attenuates the respiratory depression"}, {"measurement": "effect on adverse effects of IL-1β on hypoxic gasping and anoxic survival", "setting": "[4]; neonatal rats", "result": "attenuates the adverse effects"}]}]}
